Source: the supplement of paper PMC13380429

Columns and labels:
Settings in all cases: 72 h
Caco-2 [1] = assay: cell viability relative to DMSO; higher = less toxic
Calu-3 [2] = assay: as above
HepG2 [3] = assay: as above
U2OS [4] = assay: as above
Vero E6 [5] = assay: as above
Caco-2 [6] = assay: relative viability EC50 (midpoint between 100% and the lowest measured viability); higher = less toxic
HepG2 [7] = assay: as above
U2OS [8] = assay: as above
Vero E6 [9] = assay: as above
Caco-2 [10] = assay: drug sensitivity score (DSS) for viability; higher = more toxic; extreme values may be limits of the assay
Calu-3 [11] = assay: as above
HepG2 [12] = assay: as above
U2OS [13] = assay: as above
Vero E6 [14] = assay: as above
Calu-3 [15] = assay: relative viability EC50 (midpoint between 100% and the lowest measured viability); higher = less toxic

| Structure (SMILES) | cell viability (Caco-2 [1]; 1 nM) | cell viability (Caco-2 [1]; 10 nM) | cell viability (Caco-2 [1]; 100 nM) | cell viability (Caco-2 [1]; 1000 nM) | cell viability (Caco-2 [1]; 10000 nM) | cell viability (Calu-3 [2]; 1 nM) | cell viability (Calu-3 [2]; 10 nM) | cell viability (Calu-3 [2]; 100 nM) | cell viability (Calu-3 [2]; 1000 nM) | cell viability (Calu-3 [2]; 10000 nM) | cell viability (HepG2 [3]; 1 nM) | cell viability (HepG2 [3]; 10 nM) | cell viability (HepG2 [3]; 100 nM) | cell viability (HepG2 [3]; 1000 nM) | cell viability (HepG2 [3]; 10000 nM) | cell viability (U2OS [4]; 1 nM) | cell viability (U2OS [4]; 10 nM) | cell viability (U2OS [4]; 100 nM) | cell viability (U2OS [4]; 1000 nM) | cell viability (U2OS [4]; 10000 nM) | cell viability (Vero E6 [5]; 1 nM) | cell viability (Vero E6 [5]; 10 nM) | cell viability (Vero E6 [5]; 100 nM) | cell viability (Vero E6 [5]; 1000 nM) | cell viability (Vero E6 [5]; 10000 nM) | relative viability EC50 (Caco-2 [6]) | relative viability EC50 (HepG2 [7]) | relative viability EC50 (U2OS [8]) | relative viability EC50 (Vero E6 [9]) | drug sensitivity score (Caco-2 [10]) | drug sensitivity score (Calu-3 [11]) | drug sensitivity score (HepG2 [12]) | drug sensitivity score (U2OS [13]) | drug sensitivity score (Vero E6 [14]) | relative viability EC50 (Calu-3 [15]) |
| --- | --- | --- | --- | --- | --- | --- | --- | --- | --- | --- | --- | --- | --- | --- | --- | --- | --- | --- | --- | --- | --- | --- | --- | --- | --- | --- | --- | --- | --- | --- | --- | --- | --- | --- | --- |
| O=c1oc2cc(O)ccc2s1 [tioxolone] | 90.6% | 97.9% | 88.6% | 107% | 77.2% | 99.8% | 102% | 97.8% | 98.5% | 64.3% | 104% | 90.4% | 96% | 93.7% | 104% | 96.2% | 103% | 100% | 104% | 95.6% | 101% | 98.1% | 99.9% | 94.2% | 101% | > 10 µM | > 10 µM | > 10 µM | > 10 µM | 0.5 | 1.9 | 0 | 0 | 0 |  |
| CC(C)OC(=O)C(C)(C)Oc1ccc(C(=O)c2ccc(Cl)cc2)cc1 [fenofibrate] |  |  |  |  |  | 103% | 111% | 102% | 36.9% | 94.5% |  |  |  |  |  | 100% | 100% | 98.4% | 95.7% | 92.6% |  |  |  |  |  |  |  | > 10 µM |  |  | 0 |  | 0 |  | > 10 µM |
| Cc1nc(-c2cn3c(n2)-c2ccc(-c4cnn(C(C)(C)C(N)=O)c4)cc2OCC3)n(C(C)C)n1 [taselisib] | 106% | 99.6% | 90.8% | 59.4% | 32.4% | 99.2% | 88.1% | 63.6% | 36% | 24% | 97.4% | 84.8% | 70.3% | 62.7% | 52% | 102% | 97.3% | 90.4% | 70.3% | 57.2% | 106% | 106% | 97.3% | 85% | 62.6% | 0.649 µM |  |  |  | 8.9 | 16.9 | 11.6 | 6.2 | 3.5 | 0.107 µM |
| Cc1ccccc1CN1C2=NCCN2C(=O)C2=C1CCN(Cc1ccccc1)C2 [TIC10] | 110% | 106% | 104% | 93.7% | 103% | 98.9% | 99.7% | 98% | 102% | 92.4% |  |  |  |  |  |  |  |  |  |  | 107% | 106% | 98.8% | 99.5% | 103% | > 10 µM |  |  | > 10 µM | 0 | 0 |  |  | 0 | > 10 µM |
| OCCN1CCN(CC/C=C2/c3ccccc3Sc3ccc(Cl)cc32)CC1 [zuclopenthixol] | 105% | 80.8% | 92.8% | 94.8% | 82% | 95.1% | 93.9% | 98.9% | 91.9% | 47.9% | 93.4% | 101% | 89.9% | 98.6% | 66% | 99.6% | 96% | 99.6% | 97.1% | 79.2% | 95.2% | 95% | 93% | 93.7% | 79.2% | > 10 µM |  | > 10 µM | > 10 µM | 0.8 | 4.1 | 1.8 | 1.1 | 0.8 | 1.95 µM |
| COc1ccc(Cn2ccc3ccc(C(=O)NO)cc32)cc1 | 98% | 97% | 100% | 101% | 70.1% | 103% | 95.2% | 96.8% | 100% | 86.7% | 105% | 102% | 97.7% | 94.2% | 56.4% | 97.9% | 98.2% | 97.5% | 97% | 72.4% | 96.7% | 100% | 104% | 94.8% | 51.5% |  |  |  |  | 1.2 | 0.1 | 3.2 | 1.6 | 3.4 | > 10 µM |
| CCCc1nc(C(C)(C)O)c(C(=O)OCc2oc(=O)oc2C)n1Cc1ccc(-c2ccccc2-c2nnn[nH]2)cc1 [olmesartan-medoxomil] | 92.8% | 96% | 97.5% | 91.4% | 99.3% | 91.5% | 92.9% | 100% | 94.3% | 104% |  |  |  |  |  | 95.3% | 93.7% | 99.6% | 96.3% | 99.2% | 97.6% | 99.2% | 94.6% | 89% | 115% | > 10 µM |  | > 10 µM | > 10 µM | 0 | 0 |  | 0 | 0 | > 10 µM |
| CNc1nc(-c2ccc3c(N)n[nH]c3c2)cc(N2C[C@@H](C(=O)NC3CCCCC3)CC[C@H]2C)n1 | 106% | 106% | 102% | 79% | 58% | 93.5% | 93.3% | 87.5% | 77.3% | 48.1% | 103% | 108% | 101% | 72.4% | 53.9% | 93.7% | 101% | 95.9% | 91% | 62.3% | 97.1% | 94.9% | 98.6% | 91% | 71.9% |  |  |  |  | 4.8 | 5.9 | 5.7 | 3.2 | 2.3 | 0.737 µM |
| COc1ccc(-c2oc3cc(OC)ccc3c2C(=O)c2ccc(C#N)cc2)cc1 | 99.7% | 96.4% | 95.3% | 93.6% | 87.2% | 96.4% | 98.8% | 101% | 106% | 102% | 107% | 96.8% | 109% | 92.8% | 74.4% | 98.2% | 103% | 95.2% | 101% | 95.4% | 104% | 101% | 101% | 96.4% | 99% | > 10 µM |  | > 10 µM | > 10 µM | 0 | 0 | 2 | 0 | 0 | > 10 µM |
| CCc1c(-c2ccccc2)c(-c2ccccc2)nn1-c1ccccc1-c1cccc(OCC(=O)O)c1 | 102% | 105% | 97.8% | 113% | 91.5% | 93.4% | 94.7% | 101% | 94% | 86.3% |  |  |  |  |  | 99.7% | 101% | 98% | 105% | 97.4% | 102% | 103% | 103% | 101% | 97.9% | > 10 µM |  | > 10 µM | > 10 µM | 0 | 0.5 |  | 0 | 0 | > 10 µM |
| O=C(O[C@@H]1Cc2c(O)cc(O)cc2O[C@@H]1c1ccc(O)c(O)c1)c1cc(O)c(O)c(O)c1 [epicatechin-gallate-(-)] | 99.7% | 93.6% | 87.7% | 92% | 100% | 107% | 102% | 93.2% | 91% | 104% |  |  |  |  |  | 97.7% | 97.5% | 103% | 97.2% | 101% | 105% | 102% | 99% | 96.1% | 99% | > 10 µM |  | > 10 µM | > 10 µM | 0 | 0 |  | 0 | 0 | > 10 µM |
| C[N+](C)(C)CCOP(=O)(O)OC[C@H](O)CO [choline-alfoscerate] | 106% | 101% | 100% | 100% | 102% | 99.9% | 98% | 91.2% | 96.3% | 102% |  |  |  |  |  | 105% | 102% | 101% | 99.4% | 98% |  |  |  |  |  | > 10 µM |  | > 10 µM |  | 0 | 0 |  | 0 |  | > 10 µM |
| CN(C)CCN(C)CCc1ccc(Cl)c(Cl)c1 [BD-1047] | 95.4% | 102% | 98.3% | 94.6% | 91.8% |  |  |  |  |  | 98.3% | 102% | 96.2% | 85.5% | 89.9% | 97.2% | 102% | 93.4% | 97.5% | 94.7% | 94.5% | 104% | 96.8% | 93.6% | 97.4% | > 10 µM | > 10 µM | > 10 µM | > 10 µM | 0 |  | 1.6 | 0 | 0 |  |
| C[C@]12CC[C@H](O)C[C@H]1CC[C@@H]1[C@@H]2CC[C@]2(C)[C@@](O)(c3ccoc3)CC[C@]12O [rostafuroxine] | 103% | 98% | 99.7% | 97.8% | 109% | 96.4% | 88.4% | 103% | 94.7% | 99.6% |  |  |  |  |  | 102% | 98.6% | 101% | 101% | 101% | 103% | 102% | 99.2% | 96.1% | 99.7% | > 10 µM |  | > 10 µM | > 10 µM | 0 | 0 |  | 0 | 0 | > 10 µM |
| c1ccc(NCc2ccc(CNc3ccccn3)cc2)nc1 [WZ811] | 97.9% | 105% | 103% | 95.5% | 100% |  |  |  |  |  | 98.6% | 101% | 98.7% | 106% | 111% | 96.8% | 96.1% | 99.8% | 96.7% | 97.9% | 93.5% | 95.5% | 94.2% | 101% | 103% | > 10 µM | > 10 µM | > 10 µM | > 10 µM | 0 |  | 0 | 0 | 0 |  |
| CNC(=O)c1cccc(NC(=O)N2CCC(Oc3ccccc3Cl)CC2)c1 | 94.3% | 100% | 93.2% | 102% | 82.7% | 80.3% | 99.6% | 86.4% | 99.4% | 101% | 99.1% | 101% | 92.4% | 79.3% | 50.5% | 94.9% | 103% | 97.3% | 99.6% | 91.4% | 102% | 99.5% | 97% | 89.9% | 91% | > 10 µM |  | > 10 µM | > 10 µM | 0.3 | 0 | 4.8 | 0 | 0 | > 10 µM |
| c1ccc(Cn2c(N3CCNCC3)nc3ccccc32)cc1 [lerisetron] | 100% | 98.6% | 104% | 98.9% | 96.5% | 97.6% | 95.8% | 100% | 98% | 96.3% |  |  |  |  |  | 99.2% | 95.4% | 105% | 98.1% | 99.9% | 103% | 100% | 99.4% | 98.7% | 96.6% | > 10 µM |  | > 10 µM | > 10 µM | 0 | 0 |  | 0 | 0 | > 10 µM |
